Test [1] in a line: Anticancer activity against human SMOV2 cells after 5 days incubation by SRB proliferation assay. Type of test: functional. As to conditions: SMOV2, 120 h. Background: The SRB assay estimates cell density from bound dye.
Test [2] is described as follows: Anticancer activity against human TOV21G cells after 5 days incubation by SRB proliferation assay. It counts as functional. As to conditions: 120 h.
The target in test [3] is T1, Protein phosphatase 1D (Homo sapiens, UniProt O15297).
T1 sequence (O15297 whole entry): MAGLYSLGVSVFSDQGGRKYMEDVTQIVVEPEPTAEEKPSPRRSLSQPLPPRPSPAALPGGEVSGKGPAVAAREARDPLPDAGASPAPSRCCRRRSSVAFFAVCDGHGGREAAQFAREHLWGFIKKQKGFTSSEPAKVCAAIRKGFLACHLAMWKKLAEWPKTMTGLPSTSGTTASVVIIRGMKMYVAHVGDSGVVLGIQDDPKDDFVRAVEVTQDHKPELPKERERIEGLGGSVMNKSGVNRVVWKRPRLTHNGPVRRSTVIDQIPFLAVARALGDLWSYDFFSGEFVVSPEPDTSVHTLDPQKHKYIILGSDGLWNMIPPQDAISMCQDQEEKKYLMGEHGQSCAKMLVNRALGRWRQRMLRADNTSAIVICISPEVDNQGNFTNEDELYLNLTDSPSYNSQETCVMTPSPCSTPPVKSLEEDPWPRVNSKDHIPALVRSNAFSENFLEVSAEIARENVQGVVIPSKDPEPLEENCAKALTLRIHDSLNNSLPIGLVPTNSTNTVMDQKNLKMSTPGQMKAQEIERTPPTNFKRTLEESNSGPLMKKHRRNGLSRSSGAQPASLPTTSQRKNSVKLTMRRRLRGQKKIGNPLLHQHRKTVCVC
Description: Inhibition of PPM1D (unknown origin) phosphatase activity using peptide substrate TDDEMT*GY*VAT by malachite green/molybdate based assay.

Test [4] in a line: Anticancer activity against human SMOV2 cells after 3 days incubation by SRB proliferation assay. It counts as functional. As to conditions: SMOV2, 72 h.
Test [5] is described as follows: Anticancer activity against human TOV21G cells after 3 days incubation by SRB proliferation assay. As to conditions: 72 h. Type of test: functional.
The test system of test [6] is MCF7. In words: Anticancer activity against PPM1D amplified human MCF7 cells after 5 days incubation by SRB proliferation assay. To be noted: MCF7, 120 h. It counts as functional.
Test [7] can be described thus: Anticancer activity against PPM1D non-amplified human CAMA1 cells after 5 days incubation by SRB proliferation assay. It counts as functional. As to conditions: CAMA-1, 120 h.
Test [8] can be described thus: Anticancer activity against PPM1D non-amplified human SMOV2 cells after 5 days incubation by SRB proliferation assay. Type of test: functional. As to conditions: SMOV2, 120 h.
The nature of test [9]: Anticancer activity against PPM1D amplified human KPL1 cells after 5 days incubation by SRB proliferation assay. It counts as functional. To be noted: KPL-1, 120 h.
Test [10] concerns HeLa. Description: Anticancer activity against PPM1D non-amplified human HeLa cells after 5 days incubation by SRB proliferation assay. It counts as functional. As to conditions: 120 h.
A short description of test [11]: Anticancer activity against […] human TOV21G cells after 5 days incubation by SRB proliferation assay. Type of test: functional. To be noted: 120 h.
Test [12] addresses T2, Protein phosphatase 1D (Homo sapiens) (UniProt O15297).
T2 sequence (whole entry): T1 sequence (O15297 whole entry)
As to conditions: SMOV2, 1.25 to 5 uM.
Description: Inhibition of PPM1D in human SMOV2 cells assessed as increase in P-S15-p53 level at 1.25 to 5 uM after 24 hrs by Western blot analysis

The subject of test [13] is SMOV2. In words: Induction of apoptosis in human SMOV2 cells assessed as increase in PARP cleavage at 1.25 to 5 uM after 24 hrs by Western blot analysis. It counts as functional, cell-based. For orientation: In western blotting, separated proteins are transferred to a membrane and probed.
The subject of test [14] is TOV21G. Description: Induction of apoptosis in […] human TOV21G cells assessed as increase in PARP cleavage at 1.25 to 5 uM after 24 hrs by Western blot analysis. Type of test: functional, cell-based.
For test [15], the target named is T2, Protein phosphatase 1D (Homo sapiens). To be noted: TOV21G, 1.25 to 5 uM.
Description: Inhibition of PPM1D in non-amplified human TOV21G cells assessed as increase in P-S15-p53 level at 1.25 to 5 uM after 24 hrs by Western blot analysis

In general, GI50 refers to the concentration at which growth is held to half of that of the control. A higher GI50 goes with lower sensitivity of the cells. A word on the pIC50: it is the IC50 on a negative log10 scale, so that one unit is a factor of ten. Lower therefore signals a large IC50.

pIC50: −log10 of the molar value. Activity calls are given as the source filed them. No cut-off for these calls is given here.

For `Cc1ccc(-c2nc(-c3ccc4[nH]c(=O)oc4c3)cs2)cc1`, the results for the GI50 in test [1] and in test [2] were 24 µM and greater than 50 µM, respectively. In addition, in [3], the negative-log IC50 (pIC50) is greater than 4.70.
For the compound `COCCOCc1cc(F)ccc1-c1nc(-c2ccc3[nH]c(=O)oc3c2)cs1`, the concentration for 50% growth inhibition (GI50) in test [4] was 0.002 µM; in test [5] it was greater than 50 µM. This compound gave a pIC50 in test [3] greater than 4.70.
In the same order, the values of `CN(C)CCc1cc(F)ccc1-c1nc(-c2ccc3[nH]c(=O)oc3c2)cs1` are 0.04 µM, greater than 50 µM and greater than 4.70.
For the compound `N#Cc1ccc(-c2nc(-c3ccc4[nH]c(=O)oc4c3)cs2)cc1`, the GI50 in test [1] was 2 µM; in test [2], greater than 50 µM. For the same compound, the negative-log IC50 (pIC50) in test [3] was greater than 4.70.
Consider `Cc1cc(F)ccc1-c1nc(-c2ccc3[nH]c(=O)[nH]c3c2)cs1`, for which the concentration for 50% growth inhibition (GI50) in test [4] was 0.001 µM; in test [5], greater than 50 µM. The same compound had a pIC50 in [3] greater than 4.70.
The like results for `COc1cc(F)ccc1-c1nc(-c2ccc3[nH]c(=O)oc3c2)cs1` were, in that order, 5.7 µM, greater than 50 µM and greater than 4.70.
Regarding `COCCOCc1cc(F)ccc1-c1nc(-c2ccc3[nH]c(=O)[nH]c3c2)cs1`, the GI50 was found to be 0.013 µM in [4]; 0.005 µM in test [6]; 15 µM in test [7]; 20 µM in test [8]; 0.01 µM in test [9]; 3.9 µM in test [10]. For the same compound, the figures for the 50% growth inhibitory concentration (GI50) in [5] and in test [11] were greater than 50 µM and 5.6 µM, respectively. The same compound gave a negative logarithm of the IC50 (pIC50) in test [3] greater than 4.70.
For the compound `O=c1[nH]c2ccc(-c3csc(-c4ccc(Cl)cc4)n3)cc2o1`, the concentration for 50% growth inhibition (GI50) in [1] was 0.63 µM; in test [2], greater than 50 µM. Further, the negative-log IC50 (pIC50) in [3] was greater than 4.70.
For the compound `CN(C)Cc1cc(F)ccc1-c1nc(-c2ccc3[nH]c(=O)oc3c2)cs1`, the GI50 in test [4] was 0.01 µM; in [5] it was greater than 50 µM. Besides, the pIC50 in test [3] is greater than 4.70.
With `O=c1[nH]c2ccc(-c3csc(-c4ccc(F)cc4COCCN4CCCC4)n3)cc2o1`, the 50% growth inhibitory concentration (GI50) is 0.013 µM in test [4] and greater than 50 µM in test [5]. This compound also gave a pIC50 in [3] greater than 4.70.
For `O=c1[nH]c2ccc(-c3csc(-c4ccncc4)n3)cc2o1`, the concentration for 50% growth inhibition (GI50) is 2.8 µM in test [1] and greater than 50 µM in [2]. The pIC50 in test [3] is greater than 4.70.
In the case of `NCCOCc1cc(F)ccc1-c1nc(-c2ccc3[nH]c(=O)oc3c2)cs1`, the 50% growth inhibitory concentration (GI50) in test [4] was 0.003 µM; in [5], greater than 50 µM. Also, in test [3], the negative-log IC50 (pIC50) was greater than 4.70.
As to `O=c1[nH]c2ccc(-c3csc(-c4cccc(F)c4)n3)cc2o1`, the 50% growth inhibitory concentration (GI50) in [1] is 0.85 µM; in [2] it was greater than 50 µM. Further, in [3], the negative-log IC50 (pIC50) was greater than 4.70.
As to `O=c1[nH]c2ccc(-c3csc(-c4ccc(F)c(F)c4)n3)cc2o1`, the concentration for 50% growth inhibition (GI50) in test [4] is 0.29 µM; in [5], greater than 50 µM. The negative-log IC50 (pIC50) in [3] was greater than 4.70.
Regarding `O=c1[nH]c2ccc(-c3csc(-c4ccc(F)cc4CN4CCOCC4)n3)cc2o1`, the 50% growth inhibitory concentration (GI50) in test [4] is 0.52 µM; in [5], greater than 50 µM. For the same compound, the pIC50 in test [3] was greater than 4.70.
Consider `Cc1cc(F)ccc1-c1nc(-c2ccc3c(c2)[nH]c(=O)n3CCN(C)C)cs1`, for which the GI50 in [4] and in test [5] was greater than 50 µM each time. This compound also had a negative logarithm of the IC50 (pIC50) in [3] greater than 4.70.
On to `O=c1[nH]c2ccc(-c3csc(-c4ccc(F)c(O)c4)n3)cc2o1`, for which the figures for the concentration for 50% growth inhibition (GI50) in test [4] and in [5] were 1.6 µM and greater than 50 µM, respectively. In [3], the negative logarithm of the IC50 (pIC50) is greater than 4.70.
With `O=c1[nH]c2ccc(-c3csc(-c4ccc(F)cc4)n3)cc2o1`, the GI50 was 0.13 µM in [4], 0.01 µM in test [1], greater than 50 µM in test [2] and greater than 50 µM in test [5]. Also, the inhibition result in test [12] is “Active”. Besides, in test [13], the outcome was Active. Further, in test [14], the result was inactive. Also, the inhibition result in [15] is “inactive”. This compound also had a pIC50 in test [3] of 4.64.
Consider `CCc1cc(F)ccc1-c1nc(-c2ccc3[nH]c(=O)oc3c2)cs1`, for which the GI50 in test [4] is 0.013 µM; in test [5] it was greater than 50 µM. In addition, the pIC50 in test [3] is greater than 4.70.
For the compound `Cc1cc(F)ccc1-c1nc(-c2ccc3[nH]c(=O)n(CCN(C)C)c3c2)cs1`, the concentration for 50% growth inhibition (GI50) in test [4] is 0.003 µM; in test [5], greater than 50 µM. The compound further gave a pIC50 in [3] greater than 4.70.
In the same order, the values of `O=c1[nH]c2ccc(-c3csc(-c4ccc(F)c(C(F)(F)F)c4)n3)cc2o1` are greater than 50 µM, greater than 50 µM and greater than 4.70.
The like results for `Cc1cc(-c2nc(-c3ccc4[nH]c(=O)oc4c3)cs2)ccc1F` were, in that order, 0.25 µM, greater than 50 µM and greater than 4.70.
The like results for `O=c1[nH]c2ccc(-c3csc(-c4ccc(F)cc4CO)n3)cc2o1` were, in that order, 0.023 µM, greater than 50 µM and greater than 4.70.
Consider `O=c1[nH]c2ccc(-c3csc(-c4ccccc4)n3)cc2o1`, for which the GI50 is 2 µM in test [1] and greater than 50 µM in test [2]. In test [3], this compound gave a negative logarithm of the IC50 (pIC50) greater than 4.70.
As to `Cc1cc(F)ccc1-c1nc(-c2ccc3c(c2)CC(=O)N3)cs1`, the figures for the 50% growth inhibitory concentration (GI50) in test [4] and in test [5] were 0.002 µM and greater than 50 µM, respectively. The same compound gave a negative-log IC50 (pIC50) in test [3] greater than 4.70.
As to `Cc1cc(F)ccc1-c1nc(-c2ccc3[nH]c(=O)oc3c2)cs1`, the GI50 was 0.002 µM in test [4] and greater than 50 µM in test [5]. The same compound had a negative logarithm of the IC50 (pIC50) in test [3] of less than 4.00.
